In US10287308B2, “Compounds, compositions, and methods for the treatment of cancers” (priority 2013, dated 2019):

How the values were obtained:
[1] = physchem
[2] = Maximum tolerated dose used in the mouse PK/PD study; assay type: in vivo; conditions: H460 tumor-bearing mice
[3] = H460 tumor-bearing nude mice, intravenous, dosed at MTD as free drug, 24 hour time point, FIG. 2
Protocol: Animals were inoculated with 5×10^5 H460 small cell lung cancer cells via subcutaneous injection to the flank. Tumors were allowed to reach an approximate volume of ˜500 mm^3. Animals were then randomized into treatment groups of 3 animals per time point and were dosed at the maximum tolerated dose (MTD). The 24 hour time point was used as a benchmark across compounds
Tumor platinum levels were determined by inductively coupled plasma mass spectrometry (ICP-MS). Tumors were excised from animals and dissolved in fuming nitric acid (60% w/w) by adding four parts nitric acid to 1 part tumor w/w and heating overnight at 60 degrees Centigrade. The resulting digest was diluted 1:10 in ICP-MS analysis buffer (1% nitric acid, 2% Triton® x-100), and directly introduced into the ICP-MS unit by peristaltic pump. The end dilution factor for the samples as introduced to the ICP-MS was 50×.

[4] = logP by reverse phase HPLC retention time against a calibration curve; conditions: chromatographic method, Zorbax Eclipse XDB C8, 30° C.

## CCNC(=O)[O][Pt]([NH2])([NH2])([Cl])([Cl])[O]C(C)=O [Compound 1]
[1]
  chromatographic logP: < 1

## CCNC(=O)[O][Pt]([NH2])([NH2])([Cl])([Cl])[O]C(=O)NCC [Compound 5]
[2]
  Dose (mg/kg), dosed at the maximum tolerated dose (MTD): 30 mg/kg
[3]
  platinum levels in the tumor: higher platinum levels
[4]
  Measured LogP: <1
